Test results reported in ChEMBL document CHEMBL3621061 (J Med Chem, 2015).
One block for each compound: values may come before it.

Legend:
[1] = Displacement of [3H]histamine from dog histamine H4 receptor expressed in HEK293T cells; type: cell-based, Canis lupus familiaris; settings: hek-293t
[2] = Displacement of [3H]histamine from monkey histamine H4 receptor expressed in HEK293T cells; type: cell-based, Macaca mulatta; settings: hek-293t
Histamine H4 receptor = target: T1, Histamine H4 receptor (Cavia porcellus, UniProt Q91ZY3)
T1 sequence (Q91ZY3 whole entry): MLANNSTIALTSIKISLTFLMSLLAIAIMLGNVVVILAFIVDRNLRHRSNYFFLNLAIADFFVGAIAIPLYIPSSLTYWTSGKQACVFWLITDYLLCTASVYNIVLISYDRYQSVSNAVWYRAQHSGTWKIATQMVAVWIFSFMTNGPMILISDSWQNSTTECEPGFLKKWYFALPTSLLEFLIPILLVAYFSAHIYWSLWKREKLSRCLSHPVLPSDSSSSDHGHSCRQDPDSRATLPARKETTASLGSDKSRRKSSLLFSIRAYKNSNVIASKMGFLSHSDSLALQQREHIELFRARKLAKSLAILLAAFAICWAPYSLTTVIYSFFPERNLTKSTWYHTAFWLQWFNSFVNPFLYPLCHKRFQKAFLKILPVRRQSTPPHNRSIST

[3] = Displacement of [3H]histamine from monkey recombinant histamine H4 receptor; design: species or system Macaca mulatta
[4] = Displacement of [3H]histamine from dog recombinant histamine H4 receptor; design: species or system Canis lupus familiaris

SMILES: CN[C@@H]1CCN(c2cc(NCC3CC3)nc(N)n2)C1 [ADRIFORANT]
pKi [1]: 5.79 | pKi [2]: 7.81

Ki (Histamine H4 receptor): 6 nM
SMILES: NCCc1c[nH]cn1 [HISTAMINE]

Ki [3]: 25 nM | Ki [4]: > 10000 nM
SMILES: CC(C)c1cc(N2CC[C@@H](N)C2)nc(N)n1 [JNJ-39758979]
